Some test systems named below: ACHN renal; CAKI-1 renal; HCC-2998 colon; MCF7 breast; SF-268 CNS; SN12C renal; SNB-75 CNS; T-47D breast; NCI-H226 lung; RXF 393 renal.
Experiment in all cases: NCI-60 cell line screen, 48 h

The structures appear in SMILES notation. “And” between values parts separate entries of the source, which are not always exact repeats. Equal values may be shown once.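 Where inhibition never reached the appropriate level, the endpoint shown equals the highest concentration tested. Otherwise, values were interpolated linearly from a five-concentration, 48-hour dose response in 96-well plates. GI50 = concentration required for 50% inhibition of growth. TGI marks complete inhibition of growth.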

`COc1ccc2c(c1)CCc1[nH]nc(-c3cc(OC)c(OC)c(OC)c3)c1-2`: the GI50 with ACHN renal, in the test on CAKI-1 renal, in the test with HCC-2998 colon, in the test with MCF7 breast, in the test on SF-268 CNS and with SN12C renal was under 0.01 µM throughout. Further, the GI50 in the test on SNB-75 CNS was under 0.01 µM; in the test on T-47D breast, 3.59 µM. The TGI came to 21.7 µM with ACHN renal; 24.8 µM in the test on CAKI-1 renal; 11.4 µM in the test with HCC-2998 colon; 12.9 µM in the test with MCF7 breast; 26.8 µM in the test on SF-268 CNS; 22 µM in the test with SN12C renal. Also, the TGI amounted to 26.1 µM in the test on SNB-75 CNS and 21.3 µM in the test on T-47D breast.

As for `COc1c2c(c(CC=C(C)C)c3oc(=O)c(-c4ccc(O)cc4)c(O)c13)OC(C)(C)C=C2`, the TGI in the test with ACHN renal was 92.7 µM; in the test on CAKI-1 renal, over 100 µM; in the test on HCC-2998 colon, 48.1 µM; in the test with MCF7 breast, 54.3 µM; in the test with NCI-H226 lung, 62 µM; with RXF 393 renal it was 12.4 µM. Also, the results for the TGI in the test with SF-268 CNS, in the test on SN12C renal and in the test with T-47D breast were 41 µM, over 100 µM and over 100 µM, respectively.

Consider `Cc1cc(Oc2cnc(=O)[nH]c2)cs1`, for which the TGI in the test with ACHN renal, with CAKI-1 renal, in the test with HCC-2998 colon, in the test with MCF7 breast, in the test on NCI-H226 lung and with SF-268 CNS was over 100 µM in each case. Further, the TGI in the test on SN12C renal, in the test on SNB-75 CNS and in the test on T-47D breast was over 100 µM in each case.

With `O=C1C(Cl)=C(Nc2cccc(O)c2)C(=O)N1Cc1ccc(Cl)cc1`, the GI50 in the test on CAKI-1 renal was 1.74 µM; in the test on MCF7 breast, 2.75 µM; in the test on NCI-H226 lung, 1.21 µM; in the test with RXF 393 renal, 3.95 µM; in the test with SF-268 CNS, 4.26 µM; with SN12C renal it was 2.72 µM. In addition, the GI50 in the test with T-47D breast was 10.7 µM. Further, the TGI was 10.1 µM in the test with CAKI-1 renal; 14.6 µM with MCF7 breast; 4.91 µM in the test on NCI-H226 lung; over 100 µM with RXF 393 renal; 18.6 µM in the test on SF-268 CNS; 8.5 µM with SN12C renal. In the test with T-47D breast, this compound registered a TGI of 54 µM.

`Cn1c(/C=C(\C#N)c2cccc(C(F)(F)F)c2)nc2c(N3CCOCC3)nc(Cl)nc21`: the GI50 with ACHN renal was 0.444 µM; in the test with CAKI-1 renal, 0.656 µM; in the test with HCC-2998 colon it was 1.67 µM; in the test on NCI-H226 lung, 1.36 µM; in the test with RXF 393 renal, 0.613 µM; in the test with SF-268 CNS, 1.51 µM. In addition, the GI50 in the test on SN12C renal is 0.829 µM; with SNB-75 CNS it was 0.159 µM; in the test with T-47D breast, 0.846 µM. Also, the TGI in the test with ACHN renal stood at 1.57 µM; in the test with CAKI-1 renal, 1.97 µM; in the test on HCC-2998 colon, 3.2 µM; in the test with NCI-H226 lung, 3.18 µM; in the test on RXF 393 renal it was 1.93 µM; with SF-268 CNS, 3.25 µM. Also, the TGI came out at 2.14 µM in the test with SN12C renal, 1.15 µM with SNB-75 CNS and 3.25 µM with T-47D breast.

Turning to `O=C(Nc1ccc2[nH]c(C(=O)N3CC(CCl)c4c3cc([N+](=O)[O-])c3ccccc43)cc2c1)c1cc2ccccc2o1` (centres undefined), the GI50 in the test with CAKI-1 renal is over 1100 µM; in the test with HCC-2998 colon, 57.7 µM; with MCF7 breast it was over 1100 µM; in the test on NCI-H226 lung, over 1100 µM; with SF-268 CNS it was over 1100 µM; in the test with SN12C renal, over 1100 µM. Further, in the test on T-47D breast, the GI50 was over 1100 µM. Also, the TGI with CAKI-1 renal, in the test with HCC-2998 colon, in the test on MCF7 breast, in the test on NCI-H226 lung, in the test with RXF 393 renal and with SF-268 CNS was over 1100 µM throughout. The TGI with SN12C renal and in the test with T-47D breast was over 1100 µM in each case.

With `NC(=S)N/N=C/c1ccc(O)cn1`, the GI50 is 4.14 µM with ACHN renal; 32.1 µM and 21.8 µM and 8.53 µM with CAKI-1 renal; 2.03 µM with MCF7 breast; 29.7 µM with NCI-H226 lung; 20.5 µM and 83.3 µM and 14.6 µM with RXF 393 renal; 5.55 µM and 3.43 µM with SF-268 CNS. Moreover, the GI50 in the test with SN12C renal is 8.5 µM and 7.93 µM; in the test on SNB-75 CNS, 13.8 µM. Further, the TGI is 40.8 µM and 16.1 µM in the test with ACHN renal; 178 µM and 339 µM in the test on CAKI-1 renal; over 1500 µM in the test with MCF7 breast; 83.7 µM and 374 µM in the test with NCI-H226 lung; > 1500 µM and 552 µM in the test on RXF 393 renal; 312 µM and 119 µM with SN12C renal. For the same compound, the TGI in the test on SNB-75 CNS was 60.4 µM and 227 µM; with T-47D breast, over 451 µM.

Turning to `CCCCOC(=O)c1ccc(NC(=O)CCl)cc1`, the GI50 with HCC-2998 colon is 15.6 µM; in the test with MCF7 breast it was 2.35 µM; in the test with NCI-H226 lung, 4.82 µM; in the test on RXF 393 renal it was 1.55 µM; in the test with SF-268 CNS it was 1.78 µM; in the test on SN12C renal, 1.56 µM. The results for the GI50 with SNB-75 CNS and in the test on T-47D breast were 1.86 µM and 1.38 µM, respectively. Besides, the TGI with HCC-2998 colon amounted to 32.7 µM; in the test on MCF7 breast, 10 µM; with NCI-H226 lung, 23.1 µM; in the test on RXF 393 renal, 3.19 µM; with SF-268 CNS, 4.05 µM; in the test with SN12C renal, 3.36 µM. Also, the TGI in the test with SNB-75 CNS was 5.96 µM; with T-47D breast, 4.01 µM.

As for `Cc1ccc(C(=O)/C(=C\c2ccc([N+](=O)[O-])cc2)S(=O)Cc2ccc(F)cc2)cc1` (centres undefined), the GI50 was 1.86 µM in the test on ACHN renal; 1.77 µM in the test on CAKI-1 renal; 1.77 µM in the test on HCC-2998 colon; 3.48 µM in the test on NCI-H226 lung; 1.78 µM with RXF 393 renal; 1.69 µM with SF-268 CNS. For the same compound, the GI50 with SN12C renal was 1.7 µM; in the test with SNB-75 CNS, 1.47 µM; in the test on T-47D breast, 1.91 µM. The TGI in the test on ACHN renal came out at 3.6 µM; in the test with CAKI-1 renal, 3.84 µM; in the test with HCC-2998 colon, 3.24 µM; in the test with NCI-H226 lung, 13.1 µM; with RXF 393 renal, 3.28 µM; in the test on SF-268 CNS, 3.36 µM. The TGI with SN12C renal turned out to be 3.42 µM; in the test on SNB-75 CNS it was 3.1 µM; in the test on T-47D breast, 5.51 µM.

For the compound `COc1ccc(SC2c3ccc(C)cc3Oc3nc(N)c(C#N)c(N)c32)cc1` (centres undefined), the GI50 in the test on ACHN renal was 1.76 µM; in the test on HCC-2998 colon, 1.73 µM; in the test with MCF7 breast it was 1.95 µM; in the test with NCI-H226 lung, 1.75 µM; in the test on RXF 393 renal, 1.65 µM; with SF-268 CNS, 1.62 µM. The GI50 with SNB-75 CNS is 1.46 µM; with T-47D breast, 1.9 µM. Further, the TGI in the test with ACHN renal is 3.15 µM; in the test with HCC-2998 colon it was 3.19 µM; in the test with MCF7 breast it was 4.72 µM; with NCI-H226 lung, 3.22 µM; with RXF 393 renal, 3.01 µM; with SF-268 CNS, 3.04 µM. The TGI in the test with SNB-75 CNS was 3.21 µM; in the test with T-47D breast, 4.63 µM.

On to `O=C(O)c1ccc([S-])cc1.[Au+].c1ccc(CN2[CH-]N(Cc3ccccc3)C(c3ccccc3)=C2c2ccccc2)cc1`, for which the GI50 with ACHN renal is 0.332 µM; in the test with HCC-2998 colon it was 0.536 µM; in the test with RXF 393 renal, 0.305 µM; in the test with SN12C renal, 0.305 µM; with SNB-75 CNS, 0.298 µM; in the test on T-47D breast, 0.312 µM. Also, the TGI in the test on ACHN renal amounted to 1.28 µM; in the test on HCC-2998 colon, 1.88 µM; with RXF 393 renal it was 1.13 µM; in the test on SN12C renal, 1.3 µM; in the test with SNB-75 CNS it was 1.51 µM; in the test on T-47D breast it was 1.53 µM.

With `C[C@]1(C(=O)O)N[C@H](C(=O)O)CS1`, the GI50 is over 1000 µM in the test with ACHN renal; 843 µM with CAKI-1 renal; 921 µM in the test on HCC-2998 colon; over 1000 µM in the test with MCF7 breast; over 1000 µM with NCI-H226 lung; over 1000 µM with RXF 393 renal. Besides, the GI50 with SF-268 CNS, with SNB-75 CNS and in the test with T-47D breast was over 1000 µM throughout. Moreover, the TGI in the test with ACHN renal, with CAKI-1 renal, with HCC-2998 colon, in the test with MCF7 breast, with NCI-H226 lung and in the test with RXF 393 renal was over 1000 µM throughout. The TGI in the test on SF-268 CNS, in the test on SNB-75 CNS and in the test with T-47D breast was over 1000 µM throughout.

As for `O=C(O)C1C(=O)Oc2c(cccc2[N+](=O)[O-])C1O` (centres undefined), the TGI in the test with ACHN renal, in the test with CAKI-1 renal, with HCC-2998 colon, with NCI-H226 lung, with RXF 393 renal and in the test on SF-268 CNS was over 100 µM in each case. The TGI with SN12C renal, in the test with SNB-75 CNS and in the test on T-47D breast was over 100 µM in each case.

As for `O=C(NCCN1CCC(O)CC1)c1cc2c(o1)C(=O)c1ccccc1C2=O`, the GI50 in the test on CAKI-1 renal was 1.28 µM; in the test with HCC-2998 colon, 0.208 µM; in the test on MCF7 breast it was 0.137 µM; in the test on NCI-H226 lung it was 0.214 µM; in the test on RXF 393 renal it was 1.1 µM; with SF-268 CNS, 1.27 µM. In addition, the figures for the GI50 in the test on SN12C renal, in the test on SNB-75 CNS and in the test with T-47D breast were 0.175 µM, 0.323 µM and 0.376 µM, respectively. The TGI in the test with CAKI-1 renal was 2.66 µM; in the test on HCC-2998 colon, 0.451 µM; in the test with MCF7 breast, 0.338 µM; in the test on NCI-H226 lung it was 0.492 µM; with RXF 393 renal, 2.32 µM; in the test on SF-268 CNS, 3.55 µM. The TGI turned out to be 0.354 µM in the test with SN12C renal, 0.797 µM with SNB-75 CNS and 1.85 µM with T-47D breast.
